The numbers were not newly measured in patent publication US9486545B2, “Method of screening for colon cancer using biomarkers” (H. Lee Moffitt Cancer Center and Research Institute, Inc., priority 2011, dated 2016), which cites them from elsewhere.

The IC50 is the concentration that inhibits the measured activity by half.

The subject of the data set is TLR4.

In the case of `CCOC(=O)C1=CCCC[C@H]1S(=O)(=O)Nc1ccc(F)cc1Cl` [TAK 242, ethyl (6R)-6-[N-(2-Chloro-4-fluorophenyl)sulfamoyl]cyclohex-1-ene-1-carboxylate], the concentration for half-maximal inhibition (IC50) was 3.2 nM.
